Test system: Sprague-Dawley rats
Assay: Phenotypic and functional indicia of immunosuppression in treated rats
Type: in vivo
Settings: e.g. influenza and lymphocytic coriomeningitis virus

CC(C)C[C@H](N)CS [leucinethiol]
resistance to viral challenge: reduced
